# Results published in patent publication US8143254B2, “Methods for modulating ion channels” (Cornell Research Foundation, Inc., priority 2005, dated 2012).
# Residue numbers refer to the chain shown, from its start. Values joined by “and” are separate entries in the source; they are usually repeats but may differ in a detail not shown here. Equal values may be shown once.
# Assays:
# Type in all cases: cell-based
# [1] = molecular target: T1, Kv2.1 channels expressed in CHO cells (Rattus norvegicus, UniProt P15387); assay: Whole-cell voltage clamp of CHO cells transfected with Kv2.1; details: 20 mM, 0 mV
# T1 construct: expressed in transfected cells; host or cells: CHO cells (transient, co-transfected with GFP plasmid)
# T1 sequence (P15387 1-857): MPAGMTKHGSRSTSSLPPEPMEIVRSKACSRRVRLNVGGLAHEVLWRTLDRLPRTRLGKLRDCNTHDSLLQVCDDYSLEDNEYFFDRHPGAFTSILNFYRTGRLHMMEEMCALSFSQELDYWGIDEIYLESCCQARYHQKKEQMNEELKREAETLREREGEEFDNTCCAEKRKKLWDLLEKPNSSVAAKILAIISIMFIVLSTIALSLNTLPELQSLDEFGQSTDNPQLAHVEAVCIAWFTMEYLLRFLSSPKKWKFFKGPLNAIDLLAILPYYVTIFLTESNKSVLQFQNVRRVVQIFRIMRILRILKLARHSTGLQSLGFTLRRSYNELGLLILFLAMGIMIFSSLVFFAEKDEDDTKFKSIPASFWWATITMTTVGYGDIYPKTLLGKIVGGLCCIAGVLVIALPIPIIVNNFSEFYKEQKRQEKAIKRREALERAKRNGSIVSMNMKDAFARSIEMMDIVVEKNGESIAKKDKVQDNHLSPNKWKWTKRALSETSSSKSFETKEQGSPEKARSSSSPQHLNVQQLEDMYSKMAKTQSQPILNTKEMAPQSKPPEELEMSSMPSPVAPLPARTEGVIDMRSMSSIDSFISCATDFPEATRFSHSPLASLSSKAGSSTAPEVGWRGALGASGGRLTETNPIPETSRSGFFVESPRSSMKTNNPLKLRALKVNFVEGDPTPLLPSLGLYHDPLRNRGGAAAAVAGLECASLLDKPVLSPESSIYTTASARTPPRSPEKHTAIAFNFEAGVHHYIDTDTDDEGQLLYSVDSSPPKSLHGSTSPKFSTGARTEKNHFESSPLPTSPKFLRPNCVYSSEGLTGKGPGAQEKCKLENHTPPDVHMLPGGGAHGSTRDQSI
# Text: (§1) Kv2.1 mutants were constructed using the QuickChange Multi Site-Directed Mutagenesis Kit (Stratagene, La Jolla, Calif.). Mutant Kv2.1 genes (in the pGA1 oocyte expression vector for oocyte expression) were sequenced in their entirety to confirm appropriate mutations and check for inadvertent mutations, and then subcloned into a wild-type pGA1 backbone. For oocyte expression, Kv3.4 was in pBF1, Kv4.2 was in pRAT. cRNA transcripts were produced from SacII-linearized (Kv2.1), Mlullinearized (Kv3.4) and Not1-linearized (Kv4.2) DNA templates using the T3 (Kv2.1), SP6 (Kv3.4) and T7 (Kv4.2) mMessage mMachine kits (Ambion, Austin, Tex.). cRNA was quantified by spectrophotometry and its size integrity verified by gel electophoresis. Defolliculated stage V and VI Xenopus laevis oocytes (purchased from Nasco, Grand Island, N.Y.) were injected with 5 ng of cRNA encoding Kv2.1, Kv3.4 or Kv4.2. Chinese Hamster Ovary (CHO) cells were transfected with 0.25 μg Kv2.1 cDNA, 2 μg blank plasmid and 2 μg Green fluorescent Protein in pBOB using Supetfect transfection reagent (Qiagen) 24 hours before whole-cell voltage clamp studies.
# For whole-cell voltage clamp studies of CHO cells, bath solution was (in mM): 135 NaCl, 5 KCl, 1.2 MgCl2, 5 HEPES, 2.5 CaCl2, and 10 D-glucose, pH 7.4. Pipettes were 3-5 MQ resistance when filled with intracellular solution containing (in mM): 10 NaCl, 117 KCl, 2 MgCl2, 11 HEPES, 11 EGTA, and 1 CaCl2, pH 7.2. For experiments with extracellular drug application, cells were held at −80 mV and subjected to 2 sec test pulses […] every 30 s. Whole-cell patch clamp recordings were performed at 22-25° C. using an IX50 inverted microscope equipped with epifluorescence optics for GFP detection (Olympus), a Multiclamp 700 A Amplifier, a Digidata 1300 Analogue/Digital converter and pClamp9 software (Axon Instruments). Leak and liquid junction potentials (<4 mV) were not compensated for when generating current-voltage relationships. For intracellular drug application, the tip of the recording electrode was first filled with drug-free intracellular solution, the electrode was then back-filled with intracellular solution containing TEA (20 mM), TA279 (5 mM) or JC638.2α (0.5 mM). Cells were held at −80 mV and subjected to 2 sec test pulses from −60 mV to +60 mV in 10 mV increments, followed by a 1 sec tail pulse to −30 mV. After an initial recording which we denoted time 0, a second recording was performed after 5 minutes.
# Data analysis: Current-voltage relationships were obtained by measuring peak current during depolarizing pulses. Inhibition constants for DABCO blockers were calculated after generating a dose response curve by fitting with a logistic dose-response function y=A2+[A1−A2/1+(x/x0)^p], where A1 is the maximum response plateau, A2 is the minimum response plateau, x is drug concentrator, x0 is the IC50, and p the Hill slope. Data analysis was performed using CLAMPFIT 9 (Axon Instruments, Foster City, Calif.) and tabulated in Excel 5.0. Graphs were generated using Origin 6.1. Data are expressed as mean±SEM, with n specifying the number of independent experiments. Statistical significance was assessed by one-way ANOVA with p<0.05 being indicative of significance.
# Kv2.1-K356C = molecular target: T2, Kv2.1-K356C (Rattus norvegicus, UniProt P15387, K360C); assay: Cysteine protection experiments, K356C variant of Kv2.1 in oocytes; details: K356C mutant
# T2 construct: expressed in transfected cells; host or cells: Xenopus laevis oocytes (cRNA from pGA1)
# T2 sequence (P15387 1-857 K360C): T1 sequence (P15387 1-857) with K360C
# Text: as §1
# (§2) Whole-cell two-electrode voltage-clamp (TEVC) recordings were performed on X laevis oocytes expressing cloned Kv2.1, Kv3.4 or Kv4.2 using a Warner OC-725C amplifier and pClamp9 (Axon Instruments, Foster City, Calif.) software. Oocytes were bathed in a small-volume Warner oocyte bath and viewed with a Fisher dissection microscope. Bath solution for whole-cell oocyte recordings was (in mM): 96 NaCl, 4 KCl, 0.7 MgCl2, 1 CaCl2, 10 HEPES (pH 7.4); whole-cell oocyte TEVC pipettes were of 0.2-2 M resistance when filled with 3 M KCl. Experiments were performed 24-48 hours after cRNA injection. For assessment of current-voltage relationships in the absence or presence of dabco derivatives, oocytes were held at −80 mV, stepped for 2 seconds at voltages between −80 mV and +60 mV in 20 mV steps (Kv2.1) or between −80 and +50 mV in 10 mV steps (Kv3.4), then held for 500 ms at −40 mV before returning to the holding potential. For assessment of block during wash-in of dabco derivatives at a single voltage, oocytes were held at −80 mV, and repetitively stepped to 0 mV for 2 s with an interpulse interval of 10 s or 60 s as indicated. A range of concentrations of dabco or dabco derivatives were washed in via the bath solution during repetitive single-voltage pulses (after an initial period of 5 pulses with control solution to ensure current stabilization) until equilibrium block was achieved, to establish dose-responses. Inhibited currents are compared to the current at the end of 5-pulse control period, thus some bar graphs show ‘control’ current values slightly less than 1, and with an error bar, to show how much currents deviate in the absence of drug. Washout was performed after the highest concentration of blocker was washed in. In cases where washout was achieved, only those recordings in which current returned to within 10% of original current level were used for construction of dose-response curves. For cysteine protection experiments using the K356C variant of Kv2.1, a dabco derivative (JC638.2a) was washed in to equilibrium block, followed by wash-in of a solution containing both JC638.2a and MTSET until no further changes in current were seen; following this the solution was washed out with standard bath solution. As controls for this protection analysis, JC638.2a or MTSET were washed in alone until equilibrium block, then washed out.
# Δ1-28 Kv3.4 channels = molecular target: T3, Δ1-28 Kv3.4 channels (Homo sapiens, UniProt Q03721); assay: TEVC current-voltage relationship of Δ1-28 Kv3.4 in Xenopus oocytes; details: 1 mM
# T3 construct: expressed in transfected cells; host or cells: Xenopus oocytes (cRNA injection)
# T3 sequence (Q03721 29-635): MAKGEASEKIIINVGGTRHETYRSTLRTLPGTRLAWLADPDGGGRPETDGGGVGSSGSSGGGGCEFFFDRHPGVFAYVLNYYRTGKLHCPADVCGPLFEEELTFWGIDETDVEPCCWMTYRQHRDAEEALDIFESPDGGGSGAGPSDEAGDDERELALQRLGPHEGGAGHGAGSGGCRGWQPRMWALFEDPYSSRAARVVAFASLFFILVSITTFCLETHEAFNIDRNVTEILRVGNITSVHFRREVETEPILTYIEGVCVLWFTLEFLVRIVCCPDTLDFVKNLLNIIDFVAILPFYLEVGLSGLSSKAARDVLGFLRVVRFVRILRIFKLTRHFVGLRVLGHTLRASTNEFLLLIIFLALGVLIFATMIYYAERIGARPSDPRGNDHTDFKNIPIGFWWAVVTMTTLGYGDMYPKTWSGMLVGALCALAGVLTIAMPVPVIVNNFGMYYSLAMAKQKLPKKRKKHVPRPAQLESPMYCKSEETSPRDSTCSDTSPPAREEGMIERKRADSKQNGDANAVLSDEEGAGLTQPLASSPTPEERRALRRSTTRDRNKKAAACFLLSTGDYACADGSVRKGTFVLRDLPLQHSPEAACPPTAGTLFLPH
# Experimental: FIG. 6. Opening and block of Kv3.4 by two didabco compounds show voltage-dependency. Normalized I/V relationship for Δ1-28 Kv3.4 currents in oocytes in the absence (control) or presence as indicated of 1 mM JC279.3a or JC638.2a. Peak currents during 2 s pulses to voltages between −80 and +60 mV (protocol upper left insert) were recorded, before and after drug was washed in during successive 0.1 Hz, 2 s pulses from −80 to 0 mV until equilibrium block or opening was observed. Points are means from n=3-16 oocytes; error bars indicate SEM.
# as §2, with “In cases where washout was achieved, only those recordings in which current returned to within 10% of original current level were used for construction of dose-response curves. For cysteine protection experiments using the K356C variant of Kv2.1, a dabco derivative (JC638.2a) was washed in to equilibrium block, followed by wash-in of a solution containing both JC638.2a and MTSET until no further changes in current were seen; following this the solution was washed out with standard bath solution. As controls for this protection analysis, JC638.2a or MTSET were washed in alone until equilibrium block, then washed out.” left out
# To investigate the mechanism of Kv channel block or opening by didabco compounds, the current-voltage relationship (I/V curve) of Δ1-28 Kv3.4 channels expressed in Xenopus oocytes was assessed using TEVC recording in the absence and presence of a didabco opener (JC279.3a, the 10 CH2-group didabco from FIG. 3) or a didabco blocker (JC638.2a, the para didabco from FIG. 4).
smiles,measurement,setting,value
"CC[N+](CC)(CC)CC [TEA, tetraethylammonium, reference compound]",block on intracellular application,[1]; after 5 minutes,~88% and 80%
same,block on intracellular application,[1]; time 0,~85% and 70%
"C[N+](C)(C)CCSS(C)(=O)=O [MTSET, reference compound]","current inhibition, administered alone",Kv2.1-K356C,56±3%
"C(CCCCC[N+]12CCN(CC1)CC2)CCCC[N+]12CCN(CC1)CC2 [JC279.3a, 1,10-[bis(4-aza-1-azoniabicyclo[2.2.2]octanyl)]decane]",block or opening of Δ1-28 Kv3.4,Δ1-28 Kv3.4 channels,opener
same,voltage dependence of block or opening of Kv3.4,Δ1-28 Kv3.4 channels; attenuated at more depolarized voltages,voltage-dependent
